In data set [1] the test system is SF-767 glioblastoma multiforme cells. In words: MTS cell death assay with ionizing radiation. In kind it is cell-based. As for the experimental part:
SF-767 glioblastoma multiforme cells were treated with MP470 at 1 μM, 800c Gy IR (ionizing radiation), or a combination of both.

Data set [2] relates to OVCAR-3 cells. In words: OVCAR-3 cell proliferation. The settings on record: Homo sapiens. In kind it is cell-based. Here is the method:
The IC50 for MP470.HCl on OVCAR-3 cells proliferation was 0.9 μM (FIG. 4). It appears to have a cytostatic effect on cancer cells in addition to being cytotoxic.

The subject of data set [3] is A549 NSCLC cells. The experiment in a line: Sensitization of NSCLC cells to carboplatin. The settings on record: Homo sapiens; A549, single agent. In kind it is cell-based. Here is the method:
(§1) The non-small cell lung cancer cell lines A549 and NCI-H647 were used for these experiments. […] The IC50 concentrations observed for carboplatin against both of these cell lines was consistent with this.
(§2) Two sub-IC50 doses of MP470.HCl were tested in combination with carboplatin to evaluate possible synergism between these agents and consequently a lower IC50 value for carboplatin in each of the cell lines.
(§3) MP470.HCl was able to dramatically decrease the IC50 of carboplatin in these cells.

Data set [4] concerns NCI-H647 NSCLC cells. The experiment in a line: Sensitization of NSCLC cells to carboplatin. In kind it is cell-based. The settings on record: Homo sapiens; NCI-H647, single agent. As for the experimental part: as §1, §2, §3
Data set [5] relates to Rad51. The experiment in a line: Rad51 immunohistochemistry in dog colon and skin. In kind it is in vivo. The settings on record: for Rad 51 Result: 2 wk post treatment with 300 mg/kg/day × 28, dog 302786. Here is the method:
A study was performed to develop a testing procedure for validation of IHC Biomarker RAD51 for the staining of tissue micro arrays (TMA). An experimental […] antibody was used (Spring Bioscience Anti-RAD51) and run using testis and lung as control tissues. The antibody was run using the Dako Envision+ detection kit. The incubation times ranged from 15 minutes to 60 minutes. Each experiment was run with and without an antigen retrieval solution with a pH of 6.0. The dilutions used for the Spring Bioscience Anti-RAD51 ranged from 1:50 to 1:500. The best results were obtained when incubated for 30 minutes, with a dilution of 1:50, using the Dako Envision+ detection kit, with antigen retrieval at the pH of 6.0 based on manual scoring by a board certified pathologist. […] Rare nuclear staining was observed.
A study was conducted to investigate the changes in RAD51 expression levels after chronic treatment with MP470 hydrochloride salt two weeks post treatment with oral once daily dosing for 28 days at 300 mg/kg compared to the control (vehicle only, no drug) to healthy dogs. Tissue specimens from the colon and skin were analyzed for RAD51 expression using the procedure described above. The data in Table 9 confirm that MP470.HCl suppresses and sustains the suppression of RAD51 expression levels in normal proliferating tissues such as in colon and skin.
Dose-response effects of MP470.HCl on Rad51 were evaluated in normal beagle dogs that were administered MP470.HCl orally. Colon and skin tissues were obtained from five different groups, including vehicle control group, three groups of differing dose levels of MP470.HCl following a 28 day daily treatment with MP470.HCl, and a post-treatment recovery group two weeks after treatment daily for 28 days with 300 mg/kg of MP470.HCl. These tissue specimens were stained for Rad51 using immunohistochemistry (IHC) techniques on an automated staining platform. A mouse Anti-Rad51 antibody was used for this purpose. Positive and negative controls were used to validate the staining procedure. The data is reported as a percentage based on the scoring of the staining intensity by a board-certified pathologist. Staining intensity was reported as mean percent for n=3 in all cases except the recovery group, where n=1.

A short description of data set [6]: 28-day chronic oral tolerability and toxicokinetics in dog. In kind it is in vivo. The settings on record: for mean liver weights compared with the control group / mean liver weights relative to brain weights compared with the control group: dosing period; for mean heart weights relative to body weight compared with the control group: recovery period; for AUC / Cmax / half-life: po. As for the experimental part:
In a chronic tolerability study of MP470 hydrochloride salt in the dog, groups of six male and six female dogs received 0, 30, 100, or 300 mg/kg/day of the test article (Groups 1-4, respectively) for 28 days. MP470.HCl was administered, by capsule, as a dry powder blend with sodium lauryl sulfate. […] In males, increased incidences of emesis and soft feces/diarrhea for Groups 3-4 and discolored and mucoid feces for Groups 2-4 were observed. In females, increased incidences of emesis and mucoid feces for Group 4, increased incidences of soft feces/diarrhea for Groups 3-4, and discolored feces for Groups 2-4 were noted. These clinical abnormalities were not considered adverse. No test article-related effects on body weight or food consumption were observed during the dosing or recovery periods. No test-article related lesions were noted during ophthalmic examinations and all electrocardiograms of the test and control animals were within normal limits. No test article related effects on hematology or urinalysis parameters were observed during the dosing or recovery periods.
Test article related effects on clinical chemistry parameters during the dosing period were limited to lower mean serum aspartate aminotransferase (75%) and plasma thyroxine (50%) levels for the Group 4 males when compared with the control group. […] Test article related organ weight changes during the recovery period were limited to statistically lower mean heart weights relative to body weight for the Group 3-4 females (85 and 89%, respectively) when compared with the control group.
There was adequate systemic exposure, in general plasma concentration of the test article increased relatively rapidly after treatment, followed by a steady decline for all dose groups and both sexes. Systemic exposure to the test article, as measured by Cmax and AUC, increased with increasing dose in both sexes, but the increase was generally less than dose proportional. No significant differences in exposure to the test article were observed between male and female dogs. No accumulation of the drug was evident as measured by difference in exposure between day 0 and day 27. The time to reach maximal plasma concentration (t-max) ranged from 2-4 hours for Groups 2 and 3 and ranged from 2-8 hours for Group 4. The terminal half-lives varied widely and ranged from 7-84.7 hours for Group 2, 16-47.7 hours for Group 3 and 10.5-28 hours for Group 4. […] There was a large variability in exposure.
A NOEL could not be determined; the no-observed-adverse-effect level (NOAEL) was considered to be 300 mg/kg/day (6000 mg/m2/d) for both sexes. A STD could not be calculated in this study and is likely to be higher than 300 mg/kg/day (6000 mg/m2/d).

Where [7] appears, read: Group 3 females (100 mg/kg/day).
[8] abbreviates: Group 4 females (300 mg/kg/day).
Where [9] appears, read: both sexes, beagle, dog, in vivo, 30 mg/kg/day.
The mark [10] stands for this setting: both sexes, beagle, dog, in vivo, 100 mg/kg/day.
Where [11] appears, read: both sexes, beagle, dog, in vivo, 300 mg/kg/day.

Structures are written as SMILES.

Here are results for two molecules from patent publication US8445502B2, “Pharmaceutical formulations comprising salts of a protein kinase inhibitor and methods of using same” (Astex Pharmaceuticals, Inc., priority 2007, dated 2013).

For the molecule `S=C(NCc1ccc2c(c1)OCO2)N1CCN(c2ncnc3c2oc2ccccc23)CC1` [MP470, 4-[1]benzofuro[3,2-d]pyrimidin-4-yl-N-(1,3-benzodioxol-5-ylmethyl)piperazine-1-carbothioamide], in data set [1] (MP470 1 μM combined with 800c Gy ionizing radiation), the “Increase in cell death over either agent alone” value is reported as “more than two-fold”. Further, the “Cell death (MTS assay)” value in data set [1] (MP470 at 1 μM alone) was “will induce cell death”.
Turning to `Cl.S=C(NCc1ccc2c(c1)OCO2)N1CCN(c2ncnc3c2oc2ccccc23)CC1` [MP470.HCl, 4-[1]benzofuro[3,2-d]pyrimidin-4-yl-N-(1,3-benzodioxol-5-ylmethyl)piperazine-1-carbothioamide hydrochloride], the IC50 in data set [2] stood at 0.9 µM; in data set [3], 6.9 µM; in data set [4], 7.86 µM. Besides, the “Rad51 staining Skin (%)” value amounted to 14% in data set [5] (30 mg/Kg oral daily 28 days, n=3 (vehicle 20)); 17% in data set [5] (100 mg/Kg oral daily 28 days, n=3 (vehicle 20)); 11% in data set [5] (300 mg/Kg oral daily 28 days, n=3 (vehicle 20)); 7% in data set [5] (Recovery (2 wk post treatment with 300 mg/kg), n=1 (vehicle 20)). Besides, the “Rad51 staining Colon (%)” value in data set [5] (30 mg/Kg oral daily 28 days, n=3 (vehicle 71)) worked out at 61%; in data set [5] (100 mg/Kg oral daily 28 days, n=3 (vehicle 71)), 56%; in data set [5] (300 mg/Kg oral daily 28 days, n=3 (vehicle 71)) it was 35%; in data set [5] (Recovery (2 wk post treatment with 300 mg/kg), n=1 (vehicle 71)), 19%. Moreover, the “suppression of Rad51 in tissues of dogs” value in data set [5] (30, 100, 300 mg/kg oral daily 28 days) is “dose-dependent suppression of Rad51”. Also, the “Rad 51 Result” value in data set [5] (Colon) stood at 58%; in data set [5] (Skin), 12%. Further, the “mean liver weights compared with the control group” value was determined as 124% in data set [6] (Group 2 females (30 mg/kg/day)), 123% in data set [6] (setting [7]) and 119% in data set [6] (setting [8]). Besides, the “mean liver weights relative to brain weights compared with the control group” value came out at 117% in data set [6] (Group 2 females (30 mg/kg/day)), 121% in data set [6] (setting [7]) and 120% in data set [6] (setting [8]). For the same molecule, the “mean heart weights relative to body weight compared with the control group” value in data set [6] (setting [7]) is on record as 85%; in data set [6] (setting [8]), 89%. Moreover, the no-observed-adverse-effect level (NOAEL) at 28 days in data set [6] (beagle, dog, in vivo, dogs, both sexes, 28 days, read-out: no-observed-adverse-effect level (NOAEL)) was found to be 300 mg/kg/day. Moreover, the figures for the area under the curve (AUC) in data set [6] (setting [9]), in data set [6] (setting [10]) and in data set [6] (setting [11]) were 0.0979 to 1.13 µg·h/mL, 0.257 to 2.53 µg·h/mL and 0.559 to 4.89 µg·h/mL, respectively. Further, the maximum concentration (Cmax) in data set [6] (setting [9]) lay within 0.0425 to 0.154 µg/mL; in data set [6] (setting [10]), 0.0783 to 0.231 µg/mL; in data set [6] (setting [11]), 0.192 to 0.329 µg/mL. The half-life in data set [6] (setting [9]) is 7 to 84.7 h; in data set [6] (setting [10]) it was 16 to 47.7 h; in data set [6] (setting [11]), 10.5 to 28 h. Besides, the “STD (severely toxic dose)” value in data set [6] (both, beagle, dog, in vivo, 28 days) was greater than 6000 mg/m2/d. Besides, the mortalities result in data set [6] (dogs, 30, 100 or 300 mg/kg/day by capsule, 28 days) is given as “no mortalities”. Besides, the “time to reach maximal plasma concentration (t-max)” value lay in the range of 2 to 8 h in data set [6] (dogs, Group 4 (300 mg/kg/day)); 2 to 4 h in data set [6] (dogs, Groups 2 and 3 (30 and 100 mg/kg/day)). Besides, in data set [6] (dogs, both sexes, 28 days), the “no-observed-adverse-effect level (NOAEL)” value was 6000 mg/m2/d.
